Earlier results, collected in patent EP3072528B1, “COMPOSITION COMPRISING VEMURAFENIB AND CATIONIC COPOLYMER BASED ON METHACRYLATES” (ratiopharm GmbH, priority 2015, dated 2016).

Conditions: reported; BCS IV compound

CCCS(=O)(=O)Nc1ccc(F)c(C(=O)c2c[nH]c3ncc(-c4ccc(Cl)cc4)cc23)c1F [Vemurafenib base, N-(3-{[5-(4-chlorophenyl)-1H-pyrrolo[2,3-b]pyridin-3-yl]carbonyl}-2,4-difluorophenyl)propane-1-sulfonamide]
solubility in aqueous and physiological solvents: practically insoluble
